Source: PMC2810100 (Journal of medicinal chemistry, 2009)

Key:
CpIMPDH = settings: cited from earlier work
recombinant CpIMPDH = target: T1, recombinant CpIMPDH (Cryptosporidium parvum, UniProt Q8T6T2); type: biochemical; settings: without BSA
T1 sequence (Q8T6T2 1-400): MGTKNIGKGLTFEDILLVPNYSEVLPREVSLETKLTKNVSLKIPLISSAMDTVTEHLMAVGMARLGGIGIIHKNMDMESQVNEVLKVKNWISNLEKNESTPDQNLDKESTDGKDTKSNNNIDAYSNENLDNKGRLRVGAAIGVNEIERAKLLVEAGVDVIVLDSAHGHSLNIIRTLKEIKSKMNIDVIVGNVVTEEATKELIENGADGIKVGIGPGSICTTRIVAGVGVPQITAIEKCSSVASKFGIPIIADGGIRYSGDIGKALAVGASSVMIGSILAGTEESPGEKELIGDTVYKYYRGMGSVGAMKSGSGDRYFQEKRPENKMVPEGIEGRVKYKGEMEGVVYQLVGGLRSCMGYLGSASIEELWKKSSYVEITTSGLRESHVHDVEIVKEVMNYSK

CC(Oc1ccccc1)C(=O)Nc1ccc(Cl)cc1 (stereo not drawn) [Compound 5]
Mode of inhibition with respect to 1 (IMP) (CpIMPDH): uncompetitive inhibition | Mode of inhibition with respect to NAD+ (CpIMPDH): noncompetitive (mixed) inhibition

C[C@@H](Oc1ccnc2ccccc12)c1cn(-c2ccc(Cl)c(Cl)c2)nn1 [Compound 32, (R)-4-(1-(1-(3,4-dichlorophenyl)-1H-1,2,3-triazol-4-yl)ethoxy)quinoline]
Fold more potent than the (S)-enantiomer (33) (recombinant CpIMPDH): ~ 14 fold
